From patent US11945847B2, “Optogenetic induction of neurodegenerative disease pathologies” (UNIVERSITY OF PITTSBURGH—OF THE COMMONWEALTH SYSTEM OF …, priority 2017, dated 2024)

Tests used:
[1] = Aggregation potential of CRY2 or VVD fusion proteins by protein arrangement; format: cell-based; details: protein arrangement and light stimulation paradigm
Text: FIGS. 9A-9B show the aggregation potential of CRY2 or VVD fusion proteins based on the protein arrangement and light stimulation paradigm combination. Studies indicate that the ability of Cry2 or VVD photoreceptor to stimulate clustering and activation are dependent on the protein arrangement as well as the light stimulation paradigm.

live cells = experiment: Blue light-induced clustering/aggregation of CRY2OLIG constructs visualized in live cells; format: cell-based; details: specific blue light stimulation paradigms
Text: FIGS. 2A-2B describe methods to generate neuropathological aggregate proteins containing an LCD/IDR/Prion-like domain with light using TDP-43 and CRY2OLIG as an example. Various protein arrangements and blue light exposure paradigms were developed to induce protein aggregation of proteins and protein fragments containing LCD/IDR/prion-like domains, promote the mislocalization of nuclear proteins and recapitulate the neuropathology of neurodegenerative diseases. TDP-43 is a predominantly nuclear protein that contains an IDR/IDD/prion-like domain, and is mislocalized and aggregated in ALS, FTD, and some AD patients, as an example. DNA sequences were engineered to generate amino acid sequences that encode for a the CRY2OLIG protein that clusters when exposed to blue light generated a fusion protein either the entire TDP-43 protein (cry2-TDP43-mCh) or just the low complexity domain (LCD/IDD/prion-like domain), which makes TDP-43 aggregation prone (Cry2-274-mCh). As a control, CRY2OLIG alone was used. All constructs were fused to a fluorescent protein called mCherry (mCh) to visualize the proteins in live cells.

HEK293 cells [2] = experiment: Fluorescence recovery after photobleaching (FRAP) of light-induced TDP-43 inclusions; format: cell-based; details: persistent / chronic blue light-induced inclusions
Text: (§1) FIGS. 4A-4E show light-induced aggregation of low-complexity domain proteins. Optogenetic TDP-43 fragments containing the low-complexity domain (LCD) undergo progressive aggregation with light stimulation. […] (FIGS. 4C-4D) Optogenetic LCD fragments also continue to aggregate following brief light pulses, growing in size over time. (FIG. 4E) Persistent blue light stimulation of the TDP-43 LCD forms intracellular aggregates in the cells.
FIGS. 5A-5K show chronic blue light stimulation induces optoTDP43 mislocalization and aggregation that recapitulates pathological hallmarks seen in patient CNS tissue. HEK293 cells expressing optoTDP43-mCh were exposed to 488 nm LED stimulation or darkness for up to 36 hours. […] (FIG. 5E) Fluorescence recovery after photobleaching (FRAP) imaging was performed to assess dynamicity of optoTDP43 structures. […] (FIG. 5F) Detergent-solubility of optoTDP43 structures was assessed by subcellular fractionation to confirm aggregated state of light-induced optoTDP43 granules. […] Human ReN neurons expressing TDP43-mCh or optoTDP43 were exposed to chronic blue light stimulation and viability was simultaneously monitored by longitudinal imaging.

HEK cells [3] = experiment: Acute blue light stimulation: pathological aggregate formation and toxicity; format: cell-based
Text: FIG. 10B is a schematic of a screening pipeline to use the induction of neurodegenerative disease pathology to identify therapeutic compounds that rescue toxicity and prevent or remove the formation of the induced neurodegenerative disease pathology.

HEK cells [4] = experiment: Light-induced oligomerization of optogenetic TDP-43 fragments, live confocal microscopy; format: cell-based; details: for oligomerization after a brief pulse of blue light: 8 sec, live confocal microscopy; for oligomerization after a brief pulse of blue light / persistence of oligomers: 10% laser power, 488 nm; for persistence of oligomers: after brief pulse 8 sec
Text: as §1
Beyond protein aggregation, this system creates light-induced pathologies that mimic key pathological features found in patients making it unique compared to overexpression systems. The TDP-43 protein, which contains an LCD, was combined with the CRY2OLIG photoreceptor domain which clusters when exposed to blue light and becomes insoluble and aggregated with persistent light treatment. Fusion proteins of the full length and partial LCD sequence were generated to recapitulate human neurodegenerative disease pathology, including the cytoplasmic mislocalization of nuclear proteins that occurs in patients with ALS and FTD. This system could induce neurodegenerative disease protein aggregates in live HEK cells by exposing them to various blue light stimuli paradigms (FIGS. 4-5). In addition, biochemical hallmarks of ALS, FTD, and AD (FIG. 7) were produced showing that the cell is responding to the light-induced aggregates as observed in patient CNS despite the addition of these tags. […] Employing this DNA arrangement and light stimulation system as an example, cytoplasmic TDP-43 aggregates were obtained that are also ubiquitinylated, cleaved, and hyperphosphorylated as observed in ALS, FTD, and AD patients. TDP-43 pathology is also found in AD as well as Chronic Traumatic Encephalopathy (CTE) thus highlighting the potential disease relevance of this work. In addition, a protein arrangement and light stimulation paradigm was developed to induce the aggregation of α-synuclein (FIG. 6), which is found in the CNS of patients diagnosed with Parkinson's Disease and Lewy Body Dementia. Methods were also developed to induce intracellular aggregation of Tau protein using both the Cry-PHR and LOV photoreceptors (FIG. 7) and persistent blue light stimulation. These tau tangles are pathological hallmarks of AD, FTD and CTE in HEK cells. […] Finally, it was shown that this method can be utilized to seed aggregations, as aggregates of TDP-43 formed using this method recruit endogenous TDP-43 to seed the pathogenic neuropathology (FIGS. 5F, 5G).

EGFP-tagged TDP-43 = biological target: T1, EGFP-tagged TDP-43 (Homo sapiens, UniProt Q13148); experiment: Recruitment of co-expressed EGFP-tagged TDP-43 to light-induced inclusions (co-localization); format: cell-based; details: chronic blue light stimulation
T1 construct: expressed in transfected cells
Description: (§2) FIGS. 5A-5K show chronic blue light stimulation induces optoTDP43 mislocalization and aggregation that recapitulates pathological hallmarks seen in patient CNS tissue. HEK293 cells expressing optoTDP43-mCh were exposed to 488 nm LED stimulation or darkness for up to 36 hours. […] (FIG. 5E) Fluorescence recovery after photobleaching (FRAP) imaging was performed to assess dynamicity of optoTDP43 structures. […] (FIG. 5F) Detergent-solubility of optoTDP43 structures was assessed by subcellular fractionation to confirm aggregated state of light-induced optoTDP43 granules. […] In addition to increased insolubility of exogenous, full-length optoTDP43 (top band), chronic blue light exposure also results in recruitment of aberrant optoTDP43 cleavage products (middle bands), as well as endogenous full-length TDP-43 and disease-relevant cleavage products (bottom bands), to the detergent-insoluble, urea-soluble fraction of cell lysates as is observed in patient tissue. (FIG. 5G) To confirm direct recruitment of non-optogenetic TDP-43 species to exogenous light-induced optoTDP43 inclusions, EGFP-tagged TDP-43 was co-expressed with optoTDP43 or the Cry2 photoreceptor-only control. […] Human ReN neurons expressing TDP43-mCh or optoTDP43 were exposed to chronic blue light stimulation and viability was simultaneously monitored by longitudinal imaging.

Human ReN neurons = experiment: Neurotoxicity by automated high-throughput confocal longitudinal imaging; format: cell-based; details: chronic blue light stimulation
Description: as §2

HEK293 cells [5] = experiment: Detergent-solubility by subcellular fractionation; format: cell-based; details: with and without light treatment; chronic blue light stimulation
Description: as §2

HEK293 cells [6] = experiment: Immunofluorescence analysis of pathological hallmarks of light-induced optoTDP43 aggregates; format: cell-based
Description: FIGS. 5A-5K show chronic blue light stimulation induces optoTDP43 mislocalization and aggregation that recapitulates pathological hallmarks seen in patient CNS tissue. HEK293 cells expressing optoTDP43-mCh were exposed to 488 nm LED stimulation or darkness for up to 36 hours. […] (FIG. 5E) Fluorescence recovery after photobleaching (FRAP) imaging was performed to assess dynamicity of optoTDP43 structures. […] (FIG. 5F) Detergent-solubility of optoTDP43 structures was assessed by subcellular fractionation to confirm aggregated state of light-induced optoTDP43 granules. […] In addition to increased insolubility of exogenous, full-length optoTDP43 (top band), chronic blue light exposure also results in recruitment of aberrant optoTDP43 cleavage products (middle bands), as well as endogenous full-length TDP-43 and disease-relevant cleavage products (bottom bands), to the detergent-insoluble, urea-soluble fraction of cell lysates as is observed in patient tissue. (FIG. 5G) To confirm direct recruitment of non-optogenetic TDP-43 species to exogenous light-induced optoTDP43 inclusions, EGFP-tagged TDP-43 was co-expressed with optoTDP43 or the Cry2 photoreceptor-only control. […] (FIG. 5H-5J) Immunofluorescence analysis was performed on light-induced optoTDP43 aggregates to confirm pathological hallmarks seen in patient tissue. optoTDP43 inclusions appear to be (FIG. 5H) ubiquitinated, (FIG. 5I) hyperphosphorylated, and (FIG. 5J) p62-positive, all of which have been observed with TDP-43 inclusions in patient CNS. (FIG. 5K) Automated high-throughput confocal microscopy was performed to assess the neurotoxicity of light-induced optoTDP43 inclusions. Human ReN neurons expressing TDP43-mCh or optoTDP43 were exposed to chronic blue light stimulation and viability was simultaneously monitored by longitudinal imaging.

HEK293 cells [7] = experiment: Chronic blue light stimulation: optoTDP43 mislocalization and aggregation; format: cell-based
Description: as §2

[8] = cited from earlier work
[9] = biological target: the molecule itself; experiment: self-association in live cells on blue light, mCherry fluorescence

T1 sequence (Q13148 whole entry): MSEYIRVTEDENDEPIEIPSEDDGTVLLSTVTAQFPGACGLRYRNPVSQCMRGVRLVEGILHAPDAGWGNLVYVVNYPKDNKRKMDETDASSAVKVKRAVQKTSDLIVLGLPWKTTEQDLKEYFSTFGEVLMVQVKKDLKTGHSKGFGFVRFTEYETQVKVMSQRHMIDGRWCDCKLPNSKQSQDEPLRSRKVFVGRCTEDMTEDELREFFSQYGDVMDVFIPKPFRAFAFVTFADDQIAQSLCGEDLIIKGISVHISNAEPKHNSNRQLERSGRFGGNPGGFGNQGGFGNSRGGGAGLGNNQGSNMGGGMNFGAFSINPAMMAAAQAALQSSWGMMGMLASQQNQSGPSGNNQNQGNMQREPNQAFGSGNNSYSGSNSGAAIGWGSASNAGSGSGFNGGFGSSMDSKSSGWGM

TDP-43-CRY2OLIG-mCh: full length TDP-43, Cry2olig, mCherry reporter arrangement
ability to aggregate [1]: mislocalizes but does not exhibit the ability to aggregate

optoLCD: CRY2OLIG fused to just the low complexity domain of TDP-43 and mCherry
clustering / aggregation with blue light stimulation (reversibility) (live cells): forms irreversible aggregates | fluorescence recovery after photobleaching (FRAP) (HEK293 cells [2]): do not recover from FRAP | time to formation of pathological aggregates (HEK cells [3]; acute stimulation): ≤ 1 hour | toxicity of aggregates (HEK cells [3]; aggregates grow in size over time): become toxic over time | oligomerization after a brief pulse of blue light (HEK cells [4]): rapidly oligomerize | persistence of oligomers (HEK cells [4]): persist much longer than the Cry2 photoreceptor alone

optoRRM2+LCD: Optogenetic C-terminal fragment of TDP-43 containing RRM2 and the low-complexity domain
oligomerization after a brief pulse of blue light (HEK cells [4]): rapidly oligomerize | persistence of oligomers (HEK cells [4]): persist much longer than the Cry2 photoreceptor alone

optoTDP43: CRY2OLIG fused to the entire TDP-43 protein and mCherry
co-localization with EGFP-TDP43 (EGFP-tagged TDP-43): strong co-localization | neuron survival / viability (Human ReN neurons): significantly decreased viability over time | clustering / aggregation with blue light stimulation (reversibility) (live cells): forms irreversible aggregates | fluorescence recovery after photobleaching (FRAP) (HEK293 cells [2]): Lack of fluorescence recovery | detergent-solubility (HEK293 cells [5]): drastic shift to the insoluble fraction | p62 staining of inclusions (HEK293 cells [6]): p62-positive | phosphorylation of inclusions (HEK293 cells [6]): hyperphosphorylated | ubiquitination of inclusions (HEK293 cells [6]): ubiquitinated | localization (HEK293 cells [7]; 488 nm LED stimulation up to 36 hours, confirmed by nuclear/cytoplasmic fractionation): gradual cytoplasmic mislocalization | aggregation (HEK293 cells [7]; simultaneous chronic blue light exposure and high-throughput automated confocal microscopy): increases in propensity with increasing light exposure

B1: NcVVDY50W: NcVivid Y50W substitution (protein)
chain: HTLYAPGGYDIMGWLIQIMNRPNPQVELGPVDTSCALILCDLKQKDTPIVYASEAFLYMTGYSNAEVLGRNCRFLQSPDGMVKPKSTRKYVDSNTINTMRKAIDRNAEVQVEVVNFKKNGQRFVNFLTMIPVRDETGEYRYSMGFQCETE
dissipation from the dimerized state ([8]; Y50W change): slower ability to dissipate from the dimerized state

B2: CRY2OLIG-mCh (other)
chain: MKMDKKTIVWFRRDLRIEDNPALAAAAHEGSVFPVFIWCPEEEGQFYPGRASRWWMKQSLAHLSQSLKALGSDLTLIKTHNTISAILDCIRVTGATKVVFNHLYDPVSLVRDHTVKEKLVERGISVQSYNGDLLYEPWEIYCEKGKPFTSFNSYWKKCLDMSIESVMLPPPWRLMPITAAAEAIWACSIEELGLENEAEKPSNALLTRAWSPGWSNADKLLNEFIEKQLIDYAKNSKKVVGNSTSLLSPYLHFGEISVRHVFQCARMKQIIWARDKNSEGEESADLFLRGIGLREYSRYICFNFPFTHEQSLLSHLRFFPWDADVDKFKAWRQGRTGYPLVDAGMRELWATGWMHNRIRVIVSSFAVKFLLLPWKWGMKYFWDTLLDADLECDILGWQYISGSIPDGHELDRLDNPALQGAKYDPEGEYIRQWLPELARLPTEWIHHPWDAPLTVLKASGVELGTNYAKPIVDIDTARELLAKAISRTRGAQIMIGAA
notes: also called Cry2-mCh; Cry2 photoreceptor-only control; not shown: mCherry reporter and any linker
binding result [9]: binds

B3: CRY2OLIG: Cryptochrome 2 PHR Domain with E490G substitution (protein)
chain: B2 chain
efficiency of clustering upon blue light stimulation ([8]; E490G mutation versus endogenous sequence): slightly increased efficiency of clustering

B4: Cry2-mCh: As a control, CRY2OLIG alone fused to mCherry (protein)
chain: B2 chain
modifications: left off: large carriers
notes: As a control, CRY2OLIG alone fused to mCherry
co-localization with EGFP-TDP43 (EGFP-tagged TDP-43): no co-localization | clustering / aggregation with blue light stimulation (reversibility) (live cells): reversibly clusters | disassembly (HEK cells [4]; after brief pulse of blue light): ~10 min
